# Laboratory results reported in patent US20240226342A1, “REACTIVE OXYGEN SPECIES IMAGING AGENTS” (Washington University, priority 2022, published 2024).
# Values joined by “and” are separate entries in the source; they are usually repeats but may differ in a detail not shown here. Identical values can stand only once.
# Columns and labels:
# Assay type in all cases: in vivo
# [1] = Quantitative biodistribution in normal mice
# Procedure: FIG. 8 is a line graph showing biodistribution of 18F-SLN128 in normal BI6 mice in accordance with the present disclosure. Shown is uptake (5 min, 60 min, 2 h) in brain and other critical organs quantified in terms of percent injected dose per gram of the tissue (% ID/g).
# Lipopolysaccharide (LPS), is an endotoxin, released from Gram-negative bacteria. Next, the ability of SLN128 to detect either LPS or 3-Nitropropionic acid (3-NP) induced ROS in human cells was evaluated through live-cell fluorescence imaging. LPS is detected by toll-like receptor 4 (TLR4), a broadly expressed pattern recognition receptor found both on different cell types, including glial cells, and neurons. TLR4 engagement triggers the generation of mitochondrial superoxide from electron transport complex I, which in turn promotes bacterial killing. LPS treatment also triggers increased cytokine and chemokine expression in brain thus driving inflammation. Furthermore, 3-NP is an irreversible inhibitor of mitochondrial succinate dehydrogenase (SDH), which has been used to explore the molecular mechanisms of cell death associated with mitochondrial dysfunction and neurodegeneration. […] To this end, intracellular localization of SLN-128 in either the presence or absence of mitotracker deep red (control) was simulataneously assessed in either the LPS or 3-NP stimulated human glioblastoma U87 cells (see e.g., FIG. 4). […] Further, uptake of SLN 128 in U87 cells was compared under identical conditions with mitoSOX, a probe extensively used for assessing mROS. […] To test, whether SLN128 has ability to monitor therapeutic effects in U87 cells under identical conditions, SLN128 was incubated in either presence or absence of resveratrol (commonly used for mitigating mitochondrial ROS production) under 3 different conditions. The probe uptake was quantified as corrected total cell fluorescence (CTCF) using image J as described earlier. […] (see e.g., FIG. 6). […] Uptake in brain and other critical organs was analyzed in terms of percent injected dose per gram of the tissue (% ID/g).
# For comparison, brain uptake ratios of [^18F]-AVID-45 ([^18F]-Florbetapir)(2 min/2 h) and [^18F]-Florbetaben (2 min/4 h) in normal mice are 4.07 (% ID/g (brain): 2 min: 7.33±1.54; 2 h: 1.80±0.07; 7.33/1.80; 4.07) 57 and 5.0 (% ID/g (brain): 2 min: 4.77; 4 h: 0.95; 4.77/0.95; 5.02) 58, respectively.
# [2] = system: 3NP-induced ROS-mediated neurodegeneration in mice; assay: PET/CT imaging after stereotaxic injection of 3-NP into striatum
# Procedure: FIG. 10A-FIG. 10D is an exemplary embodiment showing preclinical PET/CT imaging in accordance with the present disclosure. C57BI6 mice (n=4) were injected with either 3-Nitropropionic acid (3-NP) or saline into striatum. 72 h following treatments, 18F-SLN-128 was injected via tail-vein into mice. FIG. 10A includes PET/CT images shown as a summation frames from 45-60 min. Dynamic PET images acquired from 0 min to 60 min post tail-vein injection. Left: Control; Right: 3-NP treated (1 mg/kg, 72 h post treatment). FIG. 10B is a bar graph showing uantified uptake (% ID/cm^3) from PET imaging. FIG. 10C includes images of brains extracted from mice, fixed in PFA/sucrose; sectioned (40 μm); stained with Cresyl violet; Arrow indicates injection site. […]
# Systemic administration of LPS induces oxidative stress and resulting a release of inflammatory cytokines, sustained microglial activation, and neuronal cell loss in brain areas, such as the hippocampus, cerebral cortex, substantia nigra, ventral tegmental area, and thalamus, alters the levels of neurotransmitters in adult animals, and cerebellum. […] Finally, the brain uptake (see e.g., FIG. 9C) derived from PET imaging also correlated with 60 min post imaging quantified uptake (see e.g., FIG. 9D) indicating potential of the radiotracer for imaging endotoxin mediated brain inflammation in vivo. […]
# [3] = Dynamic PET/MR brain imaging of normal rhesus monkey
# Procedure: FIG. 12A-FIG. 12B is an exemplary embodiment showing dynamic MR/PET brain imaging of normal rhesus monkey (10 Kg) following intravenous injection of 18F-SLN-128 (5.8 mCi) over 2 h in accordance with the present disclosure. FIG. 12A includes images showing summation of PET data over 10 min and co-registered with T2-weighted MR image of the monkey for anatomical reference. FIG. 12B is a line graph showing SUVs as a time-activity curve for the tracer influx and clearance from important regions of the brain.
# Of note, these NHP brain SUV values are 2.5-fold higher than reported for ^18F-ROStrace thus likely to translate into higher contrast brain images compared with ^18F-ROStrace (SUV=1.35). […] Tissue time-activity curves (TACs) also show fast initial uptake with maximum projection of activity at 7-10 min followed by clearance of ^18F-SLN-128 at later time-points from amygdala, caudate, cerebellum, cortex (frontal, insular, occipital and temporal), cerebellum, hippocampus, putamen, thalamus, and white matter of rhesus monkey brain.
smiles,measurement,setting,value
COc1ccc2c(c1)N(C)C(c1ccc(O)c(OCC[18F])c1)c1cccn1-2 (stereo not shown) [18F-SLN-128],brain uptake clearance ratio relative to [18F]-AV-45,[1]; healthy mice,2.9 fold
same,brain uptake clearance ratio relative to [18F]-Florbetaben,[1]; healthy mice,2.3 fold
same,clearance ratio relative to the benchmark (≥3.5) for crossing the blood-brain barrier,"[1]; mouse, in vivo",3.3 fold
same,brain clearance ratio 5 min/60 min,[1]; normal mice,11.4 and 11.3
same,clearance from other critical organs,[1]; normal mice,excreted from other critical organs over 1 h
same,defluorination / bone accumulation,[1]; normal mice,without defluorination (no bone accumulation)
same,brain uptake,"[1]; normal mice, 5 min post tail-vein injection",4.11±0.32 % ID/g
same,brain uptake,"[1]; normal mice, 60 min post tail-vein injection",0.36±0.01 % ID/g
same,correlation of brain uptake with immunohistochemistry,[2]; 3-NP treated mice,maps with neurodegeneration and microglial activation in the striatum regions
same,retention in brains of 3-NP treated mice compared with saline treated,[2]; 72 h post 3-NP into striatum,2 fold
same,clearance from brain regions,[3]; later time points,excreted from critical regions at later-time points
same,nonspecific retention in normal monkey brain,[3]; over 2 h,Insignificant nonspecific retention
same,time of maximum SUV,[3]; rhesus monkey,7 to 10 min
same,NHP brain SUV relative to 18F-ROStrace,"[3]; rhesus monkey, in vivo",2.5 fold
same,maximum Standard Uptake Value (SUV) in brain,"[3]; rhesus monkey, intravenous injection",3.5
same,"metabolites in venous blood (radio-HPLC, γ-counter)",[3]; samples at an interval of 3 min over 2 hours,did not show any metabolite
